Reference: patent US20150224164A1, “TREATMENT OF AUTISM SPECTRUM DISORDERS USING GLYCYL-L-2-METHYLPROLYL-L-GLUMATIC ACID” (Neuren Pharmaceuticals Limited, priority 2013, published 2015)
Where a SMILES comes first, the peptide text is derived from it.

Key:
Format in all cases: in vivo, mouse
adult MeCP2+/- mice = experiment: Ocular dominance plasticity, optical imaging (Example 10); conditions: 4 days monocular deprivation, daily i.p.
Procedure: Adult (>P60) wild type (SVEV or BL6) and MeCP2 (+/−) mutant females (BL6) are used for this experiment. The wild type control group is composed of both wild type littermates of MeCP2+/− females or wild type age matched SVEV females. For monocular deprivation, animals are anesthetized with Avertin (0.016 ml/g) and the eyelids of one eye is sutured for 4 days. Prior to imaging, the suture is removed and the deprived eye re-opened. Only animals in which the deprivation sutures are intact and the condition of the deprived eye appears healthy are used for the imaging session. For G-2-MePE signaling activation, a solution containing G-2-MePE is injected intra-peritoneally (IP) daily for the entire period of deprivation. For the imaging sessions mice are anesthetized with urethane (1.5 g/kg; 20% of the full dosage is administered IP each 20-30 minutes up to the final dosage, 0.02 ml of cloroprothixene 1% is also injected together with the first administration). The skull is exposed and a custom-made plate is glued on the head to minimize movement. The skull is thinned over V1 with a dremel drill and covered with an agarose solution in saline (1.5%) and a glass coverslip. During the imaging session, the animal is constantly oxygenated, its temperature maintained with a heating blanket and the eyes periodically treated with silicone oil; physiological conditions are constantly monitored. […]

fmr1 knockout mice = experiment: Contextual fear conditioning, fmr1 knockout mice; conditions: fmr1 KO; 100 mg/kg i.p. 28 days
Procedure: G-2-MePE was administered at the dose of 100 mg/kg i.p. in 0.1 ml saline, once daily for 28 days. Vehicle-treated animals were injected with 0.1 ml saline daily for 28 days. Thereafter, drug or vehicle treatments were stopped and animals were tested on successive days until all tests were completed. Finally, the animals were sacrificed for determining expression of pAkt and pERK
Contextual fear conditioning is the most basic of the conditioning (learning) procedures. It involves placing the animal in a novel environment (dark chamber), providing an aversive stimulus (a 1-sec electric shock at 0.2 mA to the paw), and then removing it. […] Freezing is a species-specific response to fear and is defined as absence of movement except for respiration.
The clinical manifestation of Fragile X Syndrome is mental retardation in which learning and memory may be profoundly impaired. We tested G-2-MePE and vehicle treated fmr1 KO and wild-type animals in a fear-conditioning task in which we measured freezing behavior in response to context. […] Before the test, we observed the mice for their reactions to a 1-sec foot shock at 0.2 mA, and we noted vocalizations, jumping behavior, and excessive running in both genotypes as evidence that they had detected the stimulus.

[1] = system: hippocampal slices of heterozygous Shank3-deficient mice; experiment: Hippocampal slice electrophysiology, Shank3-deficient mice (Example 13); conditions: 15 or 60 mg/kg oral b.i.d. 14 days
Procedure: 1 to 3 month old wild type and heterozygous Shank3-deficient mice are divided into 4 treatment groups: placebo treated wild-type, placebo treated Shank3-deficient group and two Shank3-deficient G-2-MePE treated groups. The animals are given placebo (water) or G-2-MePE formulated in water administered orally, b.i.d for 14 days. G-2-MePE is administered at two doses: 15 or 60 mg/kg.
Post-mortem, acute hippocampal slices (350 μm) are prepared from mice using a tissue chopper. Slices are maintained and experiments are conducted at 32° C. Slices are perfused with Ringer's solution containing (in mM): NaCl, 125.0; KCl, 2.5; MgSO4, 1.3; NaH2PO4, 1.0; NaHCO3, 26.2; CaCl2, 2.5; glucose, 11.0. […] Slices are maintained for 1 hr prior to establishment of a baseline of field excitatory postsynaptic potentials (fEPSPs) recorded from stratum radiatum in area CA1, evoked by stimulation of the Schaffer collateral-commissural afferents (100 μs pulses every 30 s) with bipolar tungsten electrodes placed into area CA3. […] The EPSP initial slope (mV/ms) is determined from the average waveform of four consecutive responses. […] AMPA receptor-mediated and NMDA receptor-mediated I/O relationships are measured in the presence of ionotropic glutamate receptor antagonists: […] APV (50 μM) and 6-cyano-7-nitroquinoxaline-2,3-dione CNQX (100 μM). […]

C[C@@]1(C(=O)N[C@@H](CCC(=O)O)C(=O)O)CCCN1C(=O)CN [Example G-2-MePE, Glycyl-L-2-methylprolyl-L-glutamic acid] (HELM PEPTIDE1{G.[C[C@@]1(C(=O)[*:2])CCCN1[*:1]].E}$$$$V2.0)
ocular dominance plasticity (adult MeCP2+/- mice): reduces the OD plasticity | freezing behavior, contextual fear conditioning (fmr1 knockout mice): normalizes the deficit | AMPA receptor-mediated field potentials, slope of I/O function [1]: normalizes | hippocampal LTP and its maintenance [1]: increased hippocampal long-term potentiation
